Experimental data from US20260184689A1, “PIPERIDINE-SUBSTITUTED BENZOIC ACID COMPOUND, AND PHARMACEUTICAL COMPOSITION AND USE THEREOF” (SHANGHAI YISHENG BIOPHARMACEUTICAL COMPANY LIMITED, priority 2022, published 2026).

Assays:
[1] = system: Sheep Anti-Rat Fx1A Serum induced Heymann nephritis; assay: In vivo efficacy assay of passive Heymann nephritis in rats; settings: male SD rats, intragastric twice a day for 14 days, 5, 20 and 60 mpk; LNP023 60 mpk
Text: Experimental objective: To investigate the ability of the compounds of the present disclosure to improve renal function of Sheep Anti-Rat Fx1A Serum induced Heymann nephritis in rats, including the evaluation of reducing proteinuria level and improving renal tissue damage.
Experimental animals: Male SD rats, 7 to 10 weeks old, weighing between 200 to 300 g.
Urine was collected from rats on D-2 before administration. On D1, the first day of the experiment, animals in the control group (group 1) were administered 5 mL/kg of Sheep Non-Immune serum via a single tail vein injection; animals in the model and administration groups (groups 2 to 6) were administered 5 mL/kg of Sheep Anti-Rat Fx1A Serum via a single tail vein injection.
The rats were treated by intragastric administration twice a day with an interval of 8 hours and a volume of 10 mL/kg. On D1, 1 hour before modeling, animals in groups 1 and 2 were administered blank vehicle 20% PEG400/10% Solutol/70% water; animals in group 3 were administered LNP023 (60 mpk); animals in groups 4 to 6 were administered different concentrations of synthetic compounds (5 mpk, 20 mpk, and 60 mpk); 8 hours after the first administration, each group was administered again with the same dose and volume as the first administration. From D2 to D14, animals in each group were administered different compounds or vehicles for 14 consecutive days (including the first day) according to the dose, volume, administration method, and frequency on D1.
Urine collection: Urine samples were collected from rats on D-2 before administration, and 2 to 4 hours and 4 to 6 hours after the first administration on D4, D6, D8, D11, and D14 after administration, transferred to EP tubes and stored in a refrigerator at −80° C. to −60° C. for the detection of urine protein and creatinine in rats.
Kidney sample collection: All animals were euthanized with CO2 inhalation anesthesia on Day 15, and bilateral kidneys were collected. The left kidney was cut transversely, and the right kidney was cut longitudinally. Half of the transversely cut kidney (left side) and half of the longitudinally cut kidney (right side) were fixed in formalin (placed in the same EP tube).
4. […] Urine total protein (uTP) in rats was detected without dilution; if exceeding the upper detection limit, it was 10-fold diluted (10 μL of sample+90 μL of saline (0.9% saline)) first (Decrease mode); if still exceeding the upper detection limit after 10-fold dilution, it was 100-fold diluted (2 μL of sample+198 μL of saline (0.9% saline)) (Increase mode). Data were read by the analytical instrument HITACHI LST008AS(P). • (2) Kidney pathological scoring: The degree of drug damage to rat kidneys (paraffin sections) was analyzed by HE staining. […]

[2] = system: LPS-induced complement activation; assay: In vivo efficacy assay of LPS-induced complement activation in mice; settings: female C57BL/6J mice, LPS 100 μg intraperitoneal, PO
Experimental: Experimental objective: To investigate the inhibitory effect of the compounds of the present disclosure on complement activation in mice induced by LPS stimulation.
Experimental animals: Female C57BL/6J mice, 7 to 9 weeks old, weighing between 17 to 23 g.
Experimental procedure: 100 μg of lipopolysaccharide (LPS) in Salmonella typhimurium (Sigma) dissolved in 100 μL of sterile PBS was intraperitoneally injected to induce complement activation in mice. Negative control animals were intraperitoneally injected 100 μL of sterile PBS and administered alone by tube feeding (PO). Positive control animals were intraperitoneally injected LPS and PO drug vehicles (0.5% (w/v) methyl cellulose and 0.5% (v/v) Tween 80).
Sample collection: 0.3 mL of blood samples were collected from the orbital venous plexus. All blood samples were added to commercially available EDTA-K2 anticoagulant tubes with a specification of 1.5 mL. After collection, within half an hour, the blood sample was centrifuged at 4° C., 3000 g for 10 min to aspirate the supernatant plasma, which was put in dry ice immediately, and stored in a refrigerator at −80° C. for Western blot analysis of downstream C3d protein levels after complement activation.
Sample analysis: Mouse plasma (5 μL)+Lysis buffer (27.5 μL)+Loading buffer (12.5 μL)+Reducing buffer (5 μL) were mixed well and incubated at 100° C. for 15 min with a loading volume of 5 μL/well, i.e., a loading volume of plasma of 0.5 μL per well.
Test compounds: positive compound LNPO23, the final product of Example 158, the final products (compound 159A and compound 159B) of Example 159, and compound 11 of Example 75.

[3] = target: Complement factor B (Homo sapiens, UniProt P00751); assay: Human complement factor B ELISA assay (CVF-Bb, complement C3 protein); assay type: biochemical; set-up: followed by the addition of 0.2 μL of CVF-Bb (0.1 μmol/mL); settings: CVF-Bb incubated with compound 1 hour, then complement C3 protein 37° C. 2 hours, OD 450 nm
Experimental: The mixture was incubated at room temperature for 1 hour;
Then, 9 μL of the successfully incubated samples were taken and added to the wells of the 96T plate, followed by the addition of 1 μL complement C3 protein, and the reaction was carried out at a constant temperature of 37° C. for 2 hours;
The 9 μL of the aforementioned sample-free liquid was mixed with 1 μL of complement C3 protein as the negative control; • 10 μL of the successfully incubated sample was taken, and the inhibitory concentration was determined by ELISA. The OD value at 450 nm was measured, and a curve was plotted. The obtained data were analyzed using GraphPad Prism 7.0 software, and a Log concentration-inhibition rate curve was generated using a nonlinear regression model to calculate the IC50 value.

Complement factor B, sequence (P00751 260-764 limits assumed): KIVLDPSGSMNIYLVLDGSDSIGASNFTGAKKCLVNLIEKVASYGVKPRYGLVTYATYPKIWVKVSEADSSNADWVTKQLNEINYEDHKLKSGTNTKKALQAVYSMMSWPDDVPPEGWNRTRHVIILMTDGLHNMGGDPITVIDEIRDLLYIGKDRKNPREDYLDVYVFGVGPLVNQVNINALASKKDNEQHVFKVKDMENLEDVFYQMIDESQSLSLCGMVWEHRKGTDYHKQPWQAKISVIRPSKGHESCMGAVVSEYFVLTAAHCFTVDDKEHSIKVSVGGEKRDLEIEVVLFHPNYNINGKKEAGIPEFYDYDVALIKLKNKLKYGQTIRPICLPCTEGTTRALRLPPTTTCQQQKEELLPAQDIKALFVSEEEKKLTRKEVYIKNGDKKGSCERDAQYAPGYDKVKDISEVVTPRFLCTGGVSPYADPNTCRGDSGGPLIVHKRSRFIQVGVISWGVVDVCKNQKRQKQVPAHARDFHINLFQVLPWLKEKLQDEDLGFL
Complement factor B, sequence (Q91132 23-649 partner limits assumed): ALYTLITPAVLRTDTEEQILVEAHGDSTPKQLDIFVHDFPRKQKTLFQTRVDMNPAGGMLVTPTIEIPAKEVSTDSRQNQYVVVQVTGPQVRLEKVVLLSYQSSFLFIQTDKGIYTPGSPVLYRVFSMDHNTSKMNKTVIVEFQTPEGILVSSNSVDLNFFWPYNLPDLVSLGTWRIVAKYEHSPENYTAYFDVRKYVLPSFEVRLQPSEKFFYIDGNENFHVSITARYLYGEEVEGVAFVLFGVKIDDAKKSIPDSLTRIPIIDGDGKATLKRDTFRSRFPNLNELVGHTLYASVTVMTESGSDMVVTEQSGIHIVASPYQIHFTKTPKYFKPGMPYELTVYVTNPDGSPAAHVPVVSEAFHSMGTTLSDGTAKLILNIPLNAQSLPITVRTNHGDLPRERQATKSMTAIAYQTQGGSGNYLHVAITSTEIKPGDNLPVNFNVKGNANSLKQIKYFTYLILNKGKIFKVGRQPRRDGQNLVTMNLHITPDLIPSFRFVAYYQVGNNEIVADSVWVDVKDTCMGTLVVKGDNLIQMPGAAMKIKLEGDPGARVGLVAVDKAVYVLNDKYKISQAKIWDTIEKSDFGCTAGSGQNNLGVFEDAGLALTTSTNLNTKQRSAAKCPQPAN
Complement factor B, sequence (Q91132 733-984 partner limits assumed): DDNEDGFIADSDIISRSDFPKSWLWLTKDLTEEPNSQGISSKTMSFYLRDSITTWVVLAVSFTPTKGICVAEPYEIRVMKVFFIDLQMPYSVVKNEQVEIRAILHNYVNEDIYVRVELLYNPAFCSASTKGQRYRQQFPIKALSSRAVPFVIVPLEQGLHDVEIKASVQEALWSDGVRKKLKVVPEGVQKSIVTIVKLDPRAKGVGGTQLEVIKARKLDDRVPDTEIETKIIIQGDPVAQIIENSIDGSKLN
Complement factor B, sequence (Q91132 1264-1642 partner limits assumed): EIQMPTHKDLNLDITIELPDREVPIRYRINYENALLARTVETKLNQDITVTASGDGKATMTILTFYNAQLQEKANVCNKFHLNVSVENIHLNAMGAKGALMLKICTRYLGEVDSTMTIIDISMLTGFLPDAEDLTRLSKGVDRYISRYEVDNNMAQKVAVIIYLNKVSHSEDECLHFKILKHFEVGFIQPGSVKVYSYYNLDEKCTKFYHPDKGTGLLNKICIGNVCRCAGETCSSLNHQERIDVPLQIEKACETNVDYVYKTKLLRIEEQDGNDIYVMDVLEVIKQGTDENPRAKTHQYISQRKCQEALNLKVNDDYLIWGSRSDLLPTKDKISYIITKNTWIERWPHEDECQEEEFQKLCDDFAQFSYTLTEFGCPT

SMILES | performance in the kidney disease model through urine and kidney pathology analysis, compared with LNP023 [1] | inhibition of LPS-induced complement activation (plasma C3d levels), compared with LNP023 [2] | IC50 [3]
CCCC1CCN(C(=O)c2c(OC)cc(C)c3[nH]ccc23)[C@H](c2ccc(C(=O)O)cc2)C1 (mixture of isomers) [Final product of Example 158, 4-((2S)-1-(5-Methoxy-7-methyl-1H-indole-4-carbonyl)-4-propylpiperidin-2-yl)benzoic acid] | performed better | superior or equivalent | 5 to 30 nM
CCCC1CCN(C(=O)c2c(OC)cc(C)c3[nH]ccc23)C(c2ccc(C(=O)O)cc2)C1 (single isomer, unassigned) [Compound 159A] | performed better | superior or equivalent | 5 to 30 nM
CCO[C@H]1CCN(Nc2c(OC)cc(C)c3[nH]ccc23)[C@H](c2ccc(C(=O)O)cc2)C1 [Compound 11 of Example 75, 4-((2S,4S)-4-Ethoxy-1-((5-methoxy-7-methyl-1H-indol-4-yl)amino)piperidin-2-yl)benzoic acid] | performed better | superior or equivalent | 10 to 30 nM
